Data: US12479825B2, “Melanocortin subtype-2 receptor (MC2R) antagonists and uses thereof” (Crinetics Pharmaceuticals, Inc., priority 2019, dated 2025)

target: T1, hMC2 receptor (Homo sapiens, UniProt Q01718); assay: hMC2 membrane binding assay ([125I]ACTH (1-39) Tyr23, SPA); conditions: crude hMC2R membranes from CRE-bla-CHO-K1 cells expressing hMC2 receptor and hMRAP; 0.2 nM [125I]ACTH (1-39) Tyr23; 1.5 hours at room temperature; read-out: MC2R binding potency
T1 construct: host or cells: CRE-bla-CHO-K1 cells, crude membrane fraction
Method: Crude membrane fractions are prepared from CRE-bla-CHO-K1 cells stably expressing hMC2 receptor and hMRAP accessory protein (Thermo Fisher). The cells are grown to 85-100% confluence on standard tissue culture dishes in GlutaMax DMEM growth media (Gibco) with following additives: 10% dialyzed FBS (Gemini), 0.1 mM NEAA (Gibco), 25 mM HEPES (Gibco), 5 μg/mL blasticidin (Goldbio), 100 μg/mL zeocin (Invitrogen), 600 μg/mL hygromycin (Goldbio). To prepare membranes, cells are scraped and collected in 1× Dulbecco's phosphate buffered saline (Corning) and then pelleted at 1000 RPM's. The cell pellet is reconstituted in membrane preparation buffer (20 mM HEPES, 6 mM MgCl2 and 1 mM EGTA, protease inhibitor tablets (Pierce) adjusted to pH 7.4), homogenized using a dounce homogenizer, and the resulting membrane fraction is pelleted by centrifugation at 12,000 RPM's. The membrane pellet is resuspended in membrane preparation buffer, snap freezed and stored at −80° C. for later use.
The hMC2 membrane binding assay utilizes the following components: radiolabel [^125I]ACTH (1-39) Tyr23 (PerkinElmer), wheat germ agglutinin coated PVT SPA beads (PerkinElmer), crude hMC2R membranes, and compounds. Briefly hMC2R membranes are incubated with SPA beads in binding assay buffer (50 mM HEPES, 5 mM MgCl2, 1 mM CaCl2, 0.2% BSA, protease inhibitor tablets (Pierce) adjusted to pH7.4) prior to assay initiation. A dose response of compound (the final concentration of compound is typically 0-10,000 nM), SPA membranes, and [^125I]ACTH (1-39) Tyr23 at a final concentration of 0.2 nM is plated in a 96-well assay plate and allowed to incubate 1.5 hours at room temperature. Assay plates are read using a Top Count NXT and Ki values for compounds are determined using a GraphPad Prism 6 non-linear regression analysis.

T1 sequence (Q01718 whole entry): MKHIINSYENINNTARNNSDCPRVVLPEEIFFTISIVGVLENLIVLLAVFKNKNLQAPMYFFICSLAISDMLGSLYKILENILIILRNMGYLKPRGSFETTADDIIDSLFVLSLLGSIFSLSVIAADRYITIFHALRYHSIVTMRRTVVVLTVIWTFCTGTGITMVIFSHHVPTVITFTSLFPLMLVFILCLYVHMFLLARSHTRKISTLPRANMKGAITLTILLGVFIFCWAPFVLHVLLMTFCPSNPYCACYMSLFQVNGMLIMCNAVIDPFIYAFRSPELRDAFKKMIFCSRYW
T1 sequence (Q8TCY5 whole entry partner): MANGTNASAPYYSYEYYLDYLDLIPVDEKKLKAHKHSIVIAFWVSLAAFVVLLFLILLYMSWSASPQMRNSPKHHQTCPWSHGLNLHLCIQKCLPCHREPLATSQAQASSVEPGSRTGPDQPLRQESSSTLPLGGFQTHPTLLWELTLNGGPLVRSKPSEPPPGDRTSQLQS

Ki [nM]	Molecule
< 10	CCOc1ncccc1-c1ccc(N2CC[C@H](Oc3ccc(C(F)(F)F)cc3C#N)C[C@@H]2C2CC2)c(C(=O)N[C@@H]2CCN(C)C2)n1 (mixture of isomers) [2-6, 5-{cis-4-[2-cyano-4-(trifluoromethyl)phenoxy]-2-cyclopropylpiperidin-1-yl}-2′-ethoxy-N-[(3R)-1-methylpyrrolidin-3-yl]-[2,3′-bipyridine]-6-carboxamide]
< 10	CCOc1ncccc1-c1ccc(N2CC[C@H](Oc3ccc(C(F)(F)F)nc3C#N)C[C@@H]2C2CC2)c(C(=O)N[C@@H]2CCN(C)C2)n1 (mixture of isomers) [2-14, 5-(cis-4-{[2-cyano-6-(trifluoromethyl)pyridin-3-yl]oxy}-2-cyclopropylpiperidin-1-yl)-2′-ethoxy-N-[(3R)-1-methylpyrrolidin-3-yl]-[2,3′-bipyridine]-6-carboxamide]
< 10	CCOc1ncccc1-c1ccc(N2CC[C@H](Oc3ccc(C(F)(F)F)nc3C#N)C[C@@H]2CC)c(C(=O)N[C@@H]2CCN(C)C2)n1 (mixture of isomers) [2-15, 5-(cis-4-{[2-cyano-6-(trifluoromethyl)pyridin-3-yl]oxy}-2-ethylpiperidin-1-yl)-2′-ethoxy-N-[(3R)-1-methylpyrrolidin-3-yl]-[2,3′-bipyridine]-6-carboxamide]
< 10	CCOc1ncccc1-c1ccc(N2CC[C@H](Oc3ccc(C)cc3C#N)C[C@@H]2C2CC2)c(C(=O)N[C@@H]2CCN(C)C2)n1 (mixture of isomers) [2-16, 5-[cis-4-(2-cyano-4-methylphenoxy)-2-cyclopropylpiperidin-1-yl]-2′-ethoxy-N-[(3R)-1-methylpyrrolidin-3-yl]-[2,3′-bipyridine]-6-carboxamide]
< 10	CCOc1ncccc1-c1ccc(N2CC[C@H](Oc3ccc(C)cc3C#N)C[C@@H]2CC)c(C(=O)N[C@@H]2CCN(C)C2)n1 (mixture of isomers) [2-17, 5-[cis-4-(2-cyano-4-methylphenoxy)-2-ethylpiperidin-1-yl]-2′-ethoxy-N-[(3R)-1-methylpyrrolidin-3-yl]-[2,3′-bipyridine]-6-carboxamide]
< 10	CCOc1ccccc1-c1ccc(N2CC[C@H](Oc3ccc(Cl)cc3C#N)C[C@@H]2C)c(C(=O)N[C@@H]2CCN(C)C2)n1 (mixture of isomers) [2-24, 3-[cis-4-(4-chloro-2-cyanophenoxy)-2-methylpiperidin-1-yl]-6-(2-ethoxyphenyl)-N-[(3R)-1-methylpyrrolidin-3-yl]pyridine-2-carboxamide]
< 10	CCOc1ncccc1-c1ccc(N2CC[C@H](Oc3ccc(F)cc3C#N)C[C@@H]2C2CC2)c(C(=O)N[C@@H]2CCN(C)C2)n1 (mixture of isomers) [2-25, 5-[cis-4-(2-cyano-4-fluorophenoxy)-2-cyclopropylpiperidin-1-yl]-2′-ethoxy-N-[(3R)-1-methylpyrrolidin-3-yl]-[2,3′-bipyridine]-6-carboxamide]
10 to 100	CCOc1ncccc1-c1ccc(N2CC[C@@H](Oc3ccc(C(F)(F)F)cc3C#N)C[C@H]2CC)c(O[C@@H]2CCN(C)C2)n1 (mixture of isomers) [3-8, 2-{[rac-(2R,4R)-1-(2′-ethoxy-6-{[(3R)-1-methylpyrrolidin-3-yl]oxy}-[2,3′-bipyridin]-5-yl)-2-ethylpiperidin-4-yl]oxy}-5-(trifluoromethyl)benzonitrile]
10 to 100	CCOc1ncccc1-c1ccc(N2CC[C@@H](Oc3ccc(Cl)cc3C(F)(F)F)C[C@H]2CC)c(O[C@@H]2CCN(C)C2)n1 (mixture of isomers) [3-9, 5-[rac-(2R,4R)-4-[4-chloro-2-(trifluoromethyl)phenoxy]-2-ethylpiperidin-1-yl]-2′-ethoxy-6-{[(3R)-1-methylpyrrolidin-3-yl]oxy}-2,3′-bipyridine]
< 10	CCOc1ncccc1-c1ccc(N2CC[C@@H](Oc3ccc(C(F)(F)F)cc3C#N)C[C@H]2CC)c(C(=O)N[C@@H]2CCN(C)C2)n1 (racemic) [2-2, 5-[(cis*-4-[2-cyano-4-(trifluoromethyl)phenoxy]-2-ethylpiperidin-1-yl]-2′-ethoxy-N-[(3R)-1-methylpyrrolidin-3-yl]-[2,3′-bipyridine]-6-carboxamide]
10 to 100	CCOc1ncccc1-c1ccc(N2CC[C@H](Oc3ccc(C(F)(F)F)cc3C#N)C[C@H]2C2CC2)c(C(=O)N[C@@H]2CCNC2)n1 (racemic) [2-3, 5-[trans*4-[2-cyano-4-(trifluoromethyl)phenoxy]-2-cyclopropylpiperidin-1-yl]-2′-ethoxy-N-[(3R)-pyrrolidin-3-yl]-[2,3′-bipyridine]-6-carboxamide]
< 10	CCOc1ncccc1-c1ccc(N2CC[C@H](Oc3ccc(C(F)(F)F)cc3C#N)C[C@H]2C2CC2)c(C(=O)N[C@@H]2CCN(C)C2)n1 (racemic) [2-4, 5-[trans*4-[2-cyano-4-(trifluoromethyl)phenoxy]-2-cyclopropylpiperidin-1-yl]-2′-ethoxy-N-[(3R)-1-methylpyrrolidin-3-yl]-[2,3′-bipyridine]-6-carboxamide]
< 10	CCOc1ncccc1-c1ccc(N2CC[C@@H](Oc3ccc(C(F)(F)F)cc3C#N)C[C@H]2C2CC2)c(C(=O)N[C@@H]2CCNC2)n1 (racemic) [2-5, 5-[cis*4-[2-cyano-4-(trifluoromethyl)phenoxy]-2-cyclopropylpiperidin-1-yl]-2′-ethoxy-N-[(3R)-pyrrolidin-3-yl]-[2,3′-bipyridine]-6-carboxamide]
< 10	CCOc1ncccc1-c1ccc(N2CC[C@@H](Oc3ccc(Cl)nc3C(F)(F)F)C[C@H]2C2CC2)c(C(=O)N[C@@H]2CCN(C)C2)n1 (racemic) [2-8, 5-[cis*-4-{[6-chloro-2-(trifluoromethyl)pyridin-3-yl]oxy}-2-cyclopropylpiperidin-1-yl]-2′-ethoxy-N-[(3R)-1-methylpyrrolidin-3-yl]-[2,3′-bipyridine]-6-carboxamide]
< 10	CCOc1ccc(O[C@@H]2CCN(c3ccc(-c4cccnc4OCC)nc3C(=O)N[C@@H]3CCN(C)C3)[C@H](C3CC3)C2)c(C(F)(F)F)n1 (racemic) [2-13, 5-[cis*-2-cyclopropyl-4-{[6-ethoxy-2-(trifluoromethyl)pyridin-3-yl]oxy}piperidin-1-yl]-2′-ethoxy-N-[(3R)-1-methylpyrrolidin-3-yl]-[2,3′-bipyridine]-6-carboxamide]
< 10	CCOc1ccccc1-c1ccc(N2CC[C@@H](Oc3ccc(C(F)(F)F)nc3C#N)C[C@H]2C)c(C(=O)N[C@@H]2CCN(C)C2)n1 (racemic) [2-23, 3-(cis*-4-{[2-cyano-6-(trifluoromethyl)pyridin-3-yl]oxy}-2-methylpiperidin-1-yl)-6-(2-ethoxyphenyl)-N-[(3R)-1-methylpyrrolidin-3-yl]pyridine-2-carboxamide]
< 10	CCOc1ncccc1-c1ccc(N2CC[C@H](Sc3ccccc3C(F)(F)F)C[C@H]2CC)c(C(=O)N[C@@H]2CCN(C)C2)n1 (racemic) [5-1, rac-2′-ethoxy-5-[(2R,4S)-2-ethyl-4-{[2-(trifluoromethyl)phenyl]sulfanyl}piperidin-1-yl]-N-[(3R)-1-methylpyrrolidin-3-yl]-[2,3′-bipyridine]-6-carboxamide]
100 to 1000	CCOc1ncccc1-c1ccc(N2CC[C@H](S(=O)(=O)c3ccccc3C(F)(F)F)C[C@H]2CC)c(C(=O)N[C@@H]2CCN(C)C2)n1 (racemic) [5-2, rac-2′-ethoxy-5-[(2R,4S)-2-ethyl-4-[2-(trifluoromethyl)benzenesulfonyl]piperidin-1-yl]-N-[(3R)-1-methylpyrrolidin-3-yl]-[2,3′-bipyridine]-6-carboxamide]

Molecule	Ki [nM]
5-{cis-4-[4-chloro-2-(difluoromethyl)phenoxy]-2-cyclopropylpiperidin-1-yl}-2′-ethoxy-N-[(3R)-1-methylpyrrolidin-3-yl]-[2,3′-bipyridine]-6-carboxamide [2-7]	< 10
CCOc1ncccc1-c1ccc(N2CC[C@H](Oc3ccc(C(F)(F)F)nc3C#N)C[C@@H]2CC)c(C(=O)N[C@@H]2CN3CCC2CC3)n1 (mixture of isomers) [2-19, N-[(3S)-1-azabicyclo[2.2.2]octan-3-yl]-5-(cis-4-{[2-cyano-6-(trifluoromethyl)pyridin-3-yl]oxy}-2-ethylpiperidin-1-yl)-2′-ethoxy-[2,3′-bipyridine]-6-carboxamide]	< 10
CCOc1ncccc1-c1ccc(N2CC[C@@H](Oc3ccc(C(F)(F)F)cc3C#N)C[C@H]2CC)c(C(=O)N[C@@H]2CN3CCC2CC3)n1 (racemic) [2-20, N-[(3S)-1-azabicyclo[2.2.2]octan-3-yl]-5-[cis*-4-[2-cyano-4-(trifluoromethyl)phenoxy]-2-ethylpiperidin-1-yl]-2′-ethoxy-[2,3′-bipyridine]-6-carboxamide]	< 10
